Measured values taken from patent publication US11505537B2, “Compositions comprising methylphenidate-prodrugs, processes of making and using the same” (KemPharm, Inc., priority 2016, dated 2022).
Structures can show the parent of a compound that is named as a salt. Where two headings read alike, the source gives them in different places.

Assays:
[1] = Solubility in IPA/IPAc inferred from recrystallization; format: physicochemical; details: isopropylalcohol/isopropylacetate, from recrystallization yields
From the text: In one embodiment, the conjugate d/l-MPH-CO2CH2-nicotinoyl-L-Ser was recrystallized from a mixture (1:1) of isopropylalcohol (IPA) and isopropylacetate (IPAc) yielding approximately 45.2% of product (purity of about 98% by HPLC). A similar amount of d-MPH-CO2CH2-nicotinoyl-L-Ser recrystallized from IPA and IPAc (2:1) yielded approximately 81.5% of product (purity of about 97.6% by HPLC).

[2] = Oral PK in rats of d- and l-isomers (unconjugated MPH, L-Ser and L-Thr conjugates) at equimolar doses; details: for d:l Ratio AUC / d:l Ratio Cmax / d:l Ratio Tmax: d-isomer vs l-isomer; for d:l Ratio AUC: mean AUC; for d:l Ratio Cmax: mean Cmax; for Cmax: equimolar doses
Experimental: In another embodiment, the following compounds were dosed orally in rats at equimolar doses: d-MPH.HCl, l-MPH.HCl, d-MPH-CO2CH2-nicotinoyl-L-Ser, l-MPH-CO2CH2-nicotinoyl-L-Ser, d-MPH-CO2CH2-nicotinoyl-L-Thr, and l-MPH-CO2CH2-nicotinoyl-L-Thr.

[3] = Human single-dose PK of 32 mg d-MPH-CO2CH2-nicotinoyl-L-Ser oral liquid, fasted; details: single 32 mg oral liquid
From the text: Twenty-four (24) healthy volunteers were enrolled in this open-label, single-dose, two-treatment, two-period PK trial.

[4] = Human single- and multiple-dose PK of d-MPH HCl/conjugate dose mixtures vs Concerta 54 mg, once daily for 7 days, fasted; format: in vivo
From the text: Forty-eight (48) healthy volunteers (12 per treatment arm) were enrolled in this open-label, single- and multiple-dose, four-treatment, one-period parallel PK trial.
Eligible subjects included healthy male and female volunteers between the age of 18 and 55 years with a body mass index (BMI) between 18 and 32 kg/m^2 and a body weight between 60 and 100 kg at screening. The primary objective of the study was to assess the single and multiple dose pharmacokinetics of d-MPH-CO2CH2-nicotinoyl-L-Ser and d-methylphenidate following multiple doses of different combinations of d-methylphenidate HCl/d-MPH-CO2CH2-nicotinoyl-L-Ser Chloride administered orally once per day for 7 days in healthy volunteers under fasted conditions, compared to the same dosing regimen with a Concerta® tablet. After the 1st dose of study drug (Day 1), blood samples for PK were collected at pre-dose (0 hour; within 1 hour prior to dosing), and at 0.5, 1, 1.5, 2, 2.5, 3, 4.5, 6, 7, 7.5, 8, 8.5, 9, 10, 12, 13, and 24 hours±5 minutes post-dose. The 24-hr post-dose blood sample was taken before administration of the 2nd dose of study drug. After the 2nd, 3rd, 4th, 5th and 6th dose of study drug (Days 2-6), blood samples were collected at pre-dose (within 10 minutes prior to dosing), and at 1.5 and 8 hours±5 minutes post-dose. The pre-dose sample on Day 2 was the same as the 24-hour post-dose sample after the 1st dose. After the last dose (7th dose) of study drug (Day 7), blood samples for PK were collected at pre-dose (within 10 minutes prior to dosing), and at 0.5, 1, 1.5, 2, 2.5, 3, 4.5, 6, 7, 7.5, 8, 8.5, 9, 10, 12, 13, 24, 36, 48, 60 and 72 hours±5 minutes post-dose.

[5] = Human single-dose PK of 60 mg d-MPH-CO2CH2-nicotinoyl-L-Ser chloride capsules, fasted and fed; format: in vivo; details: for AUC(0-inf) / half-life / AUC(0-t) / Tmax / Cmax: both sexes, plasma, analyte d-MPH-CO2CH2-nicotinoyl-L-Ser; for Tmax: read-out: Tmax (median)
Experimental: A human study was conducted to evaluate the pharmacokinetics of d-MPH-CO2CH2-nicotinoyl-L-Ser and d-methylphenidate after oral administration of 60 mg d-MPH-CO2CH2-nicotinoyl-L-Ser chloride gelatin capsules in healthy volunteers under fasted and fed conditions. Fourteen (14) subjects were enrolled in this phase 1, open-label, single dose, two-period, randomized, crossover study. Eligible subjects included healthy male and female volunteers between the age of 18 and 55 years with a body mass index (BMI) between 18 and 32 kg/m^2 and a body weight between 50 and 100 kg at screening.
Two single-dose treatments were administered with a minimum 96-hour washout period between doses. Blood samples for pharmacokinetics were collected pre-dose and at 0.5, 0.75, 1, 1.5, 2, 2.5, 3, 3.5, 4.5, 6, 8, 10, 12, 16, 24, and 36 hours±5 minutes post-dose, in each treatment period.

[6] = Oral PK in rats, conjugate vs unconjugated d-methylphenidate (LC-MS/MS); format: in vivo; details: analyte d-methylphenidate, […] d-MPH content, hydrochloride
Experimental: (§1) The plasma concentrations of d-methylphenidate were measured by LC-MS/MS over time. The oral plasma concentrations of d-methylphenidate released from d-threo-MPH-CO2CH2-nicotinoyl-L-Ser were compared with unconjugated d-methylphenidate after oral administration in rats.
The human equivalent dose for the conjugate was 0.8 mg/kg as compared to 0.4 mg/kg for unconjugated d-methylphenidate.

[7] = Intranasal PK in rats, conjugate vs unconjugated d-methylphenidate; format: in vivo; details: analyte d-methylphenidate
Experimental: as §1
As shown in FIG. 5 and Table 10, after 4.75 mg conjugate was intranasally administered to rats, plasma concentrations of d-methylphenidate released from the conjugate are substantially flat from about 0 to about 1 hour following intranasal administration in a rat. […] Conjugated d-methylphenidate was about 6% AUC and 5% Cmax of unconjugated d-methylphenidate.

[8] = Intravenous PK in rats, conjugate vs unconjugated d-methylphenidate; format: in vivo; details: analyte d-methylphenidate

COC(=O)[C@@H](c1ccccc1)[C@@H]1CCCCN1C(=O)OC[n+]1cccc(C(=O)N[C@@H](CO)C(=O)[O-])c1 [l-MPH-CO2CH2-nicotinoyl-L-Ser]
solubility in IPA/IPAc compared to d-MPH-CO2CH2-nicotinoyl-L-Ser [1]: significantly higher

COC(=O)[C@H](c1ccccc1)[C@H]1CCCCN1C(=O)OC[n+]1cccc(C(=O)N[C@H](C(=O)O)[C@@H](C)O)c1.[Cl-] [d-MPH-CO2CH2-nicotinoyl-L-Thr, 3-(((1S,2R)-1-carboxy-2-hydroxypropyl)carbamoyl)-1-(((R)-2-(2-(R)-methoxy-2-oxo-1-phenylethyl)piperidine-1-carbonyloxy)methyl)pyridium chloride]
d:l Ratio AUC [2]: ~53% | d:l Ratio Cmax [2]: about 58%

COC(=O)C(c1ccccc1)C1CCCCN1C(=O)OC[n+]1cccc(C(=O)N[C@H](C(=O)[O-])[C@@H](C)O)c1 (stereo partly drawn) [MPH-CO2CH2-nicotinoyl-L-Thr]
d:l Ratio Tmax [2]: 57% | d:l Ratio AUC [2]: 53% | d:l Ratio Cmax [2]: 58%

COC(=O)[C@H](c1ccccc1)[C@H]1CCCCN1C(=O)OC[n+]1cccc(C(=O)N[C@@H](CO)C(=O)O)c1 [d-MPH-CO2CH2-nicotinoyl-L-Ser, d-methylphenidate-CO2CH2-nicotinoyl-L-Ser]
Plasma concentration of intact prodrug at 24 hours post dose [3]: about 0 | Time until which plasma concentrations of intact prodrug increased ([3]; N=24): about 2 hours

COC(=O)C(c1ccccc1)C1CCCCN1 (stereo not drawn) [unconjugated MPH, methyl 2-phenyl-2-(piperidin-2-yl)acetate]
d:l Ratio Tmax [2]: 62%

COC(=O)C(c1ccccc1)C1CCCCN1C(=O)OC[n+]1cccc(C(=O)N[C@@H](CO)C(=O)[O-])c1 (stereo partly drawn) [MPH-CO2CH2-nicotinoyl-L-Ser]
d:l Ratio Tmax [2]: 182% | d:l Ratio AUC [2]: 73% | d:l Ratio Cmax [2]: 94%

COC(=O)[C@@H](c1ccccc1)[C@@H]1CCCCN1 [l-MPH•HCl]
AUC ([2]; analyte l-MPH): 96.4 ng·h/mL | Tmax ([2]; analyte l-MPH): 42 min | Cmax ([2]; analyte l-MPH): 51.5 ng/mL

COC(=O)[C@H](c1ccccc1)[C@H]1CCCCN1C(=O)OC[n+]1cccc(C(=O)N[C@@H](CO)C(=O)O)c1.[Cl-] [d-MPH-CO2CH2-nicotinoyl-L-Ser chloride, 3-((S)-1-carboxy-2-hydroxyethylcarbamoyl)-1-(((R)-2-(2-(R)-methoxy-2-oxo-1-phenylethyl)piperidine-1-carbonyloxy)methyl)pyridium chloride]
concentration at 24 h ([4]; both sexes, human, plasma, oral dose mixtures, adult humans, FIGS. 14-25, read-out: Plasma concentration of intact d-MPH-CO2CH2-nicotinoyl-L-Ser chloride at 24 hours post dose): < 1 ng/mL | Accumulation of intact d-MPH-CO2CH2-nicotinoyl-L-Ser chloride in the bloodstream after the 7th dose ([4]; dose 1 vs dose 7 plasma concentrations at 24 hours): negligible | Time until which plasma concentrations of intact d-MPH-CO2CH2-nicotinoyl-L-Ser chloride increased ([4]; oral dose mixtures, adult humans, FIGS. 14-25): about 2 hours | peak d-MPH exposure in the fed state vs fasted ([5]; analyte d-MPH, single oral 60 mg): slightly higher | AUC(0-inf) ([5]; human, oral, 60 mg, Fasted): 309 ng·h/mL | half-life ([5]; human, oral, 60 mg, Fasted): 350 min | AUC(0-t) ([5]; human, oral, 60 mg, Fasted, read-out: AUC0-24 hr): 300 ng·h/mL | AUC(0-t) ([5]; human, oral, 60 mg, Fasted, read-out: AUC0-last): 306 ng·h/mL | Tmax ([5]; human, oral, 60 mg, Fasted): 30 min | AUC(0-inf) ([5]; human, oral, 60 mg, Fed): 84.2 ng·h/mL | Cmax ([5]; human, oral, 60 mg, Fed): 10.2 ng/mL | half-life ([5]; human, oral, 60 mg, Fed): 366 min | AUC(0-t) ([5]; human, oral, 60 mg, Fed, read-out: AUC0-24 hr): 77.9 ng·h/mL | AUC(0-t) ([5]; human, oral, 60 mg, Fed, read-out: AUC0-last): 81.1 ng·h/mL | Tmax ([5]; human, oral, 60 mg, Fed): 180 min | Cmax ([5]; Fasted, single oral 60 mg, human adults): 75.6 ng/mL

COC(=O)[C@H](c1ccccc1)[C@H]1CCCCN1.Cl [d-MPH•HCl, (2R,2′R)-(+)-Methylphenidate hydrochloride]
AUC ([2]; analyte d-MPH): 119.2 ng·h/mL | Tmax ([2]; analyte d-MPH): 24 min | Cmax ([2]; analyte d-MPH): 98.9 ng/mL | d:l Ratio AUC [2]: ~124% | d:l Ratio Cmax [2]: about 192% | Tmax [6]: 24 min | Tmax ([6]; listed as unconjugated d-methylphenidate): about 0.4 h | AUC0-1 h [7]: 1110.8 ng·h/mL | Cmax [7]: 2561.6 ng/mL | Tmax [7]: 6 min | AUC0-1 h [8]: 312.6 ng·h/mL | AUC0-2 h [8]: 534.9 ng·h/mL | Cmax [8]: 541.8 ng/mL | Tmax [8]: 24 min
